{
  "source": "paper PMC6704710",
  "about": "“Preclinical evaluation of 3D185, a novel potent inhibitor of FGFR1/2/3 and CSF-1R, in FGFR-dependent and macrophage-dominant cancer models” (Journal of Experimental & Clinical Cancer Research : CR, 2019)",
  "test_in_all_cases": "Eurofins kinase panel",
  "assay_type_in_all_cases": "biochemical",
  "conditions_in_all_cases": "read-out: Inhibition rate (%)",
  "key": {"[1]": {"target": "T1, Flt3(h) (Homo sapiens, UniProt P36888)", "T1 construct": "purchased Eurofins (KinaseProfiler)", "T1 sequence (P36888 27-993)": "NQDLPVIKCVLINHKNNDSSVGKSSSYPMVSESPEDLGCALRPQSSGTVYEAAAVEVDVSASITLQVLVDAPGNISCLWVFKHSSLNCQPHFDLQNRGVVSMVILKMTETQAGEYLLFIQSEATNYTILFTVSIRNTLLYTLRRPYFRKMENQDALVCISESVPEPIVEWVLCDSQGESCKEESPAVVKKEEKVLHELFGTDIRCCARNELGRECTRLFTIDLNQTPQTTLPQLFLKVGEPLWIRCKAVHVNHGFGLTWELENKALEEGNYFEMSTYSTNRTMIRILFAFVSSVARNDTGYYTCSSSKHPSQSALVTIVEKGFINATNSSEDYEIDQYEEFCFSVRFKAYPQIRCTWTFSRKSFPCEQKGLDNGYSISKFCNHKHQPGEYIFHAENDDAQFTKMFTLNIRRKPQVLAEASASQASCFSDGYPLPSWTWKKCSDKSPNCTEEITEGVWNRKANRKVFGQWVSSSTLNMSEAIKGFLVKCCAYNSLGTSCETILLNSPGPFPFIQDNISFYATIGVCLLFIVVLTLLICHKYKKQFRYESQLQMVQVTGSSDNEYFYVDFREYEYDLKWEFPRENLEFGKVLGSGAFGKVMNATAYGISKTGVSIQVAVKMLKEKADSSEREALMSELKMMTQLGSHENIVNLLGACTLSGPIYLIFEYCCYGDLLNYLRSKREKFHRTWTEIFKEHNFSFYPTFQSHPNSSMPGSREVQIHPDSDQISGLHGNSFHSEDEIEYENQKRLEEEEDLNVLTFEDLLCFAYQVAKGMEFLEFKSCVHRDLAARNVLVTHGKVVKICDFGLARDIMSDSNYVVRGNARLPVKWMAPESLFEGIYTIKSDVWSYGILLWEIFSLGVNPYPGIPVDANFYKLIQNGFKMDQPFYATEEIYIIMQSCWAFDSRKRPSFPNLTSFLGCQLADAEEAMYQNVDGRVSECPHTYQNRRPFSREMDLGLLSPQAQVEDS"}, "[2]": {"target": "T2, MuSK(h) (Homo sapiens, UniProt O15146)", "T2 construct": "purchased Eurofins (KinaseProfiler)", "T2 sequence (O15146 24-869)": "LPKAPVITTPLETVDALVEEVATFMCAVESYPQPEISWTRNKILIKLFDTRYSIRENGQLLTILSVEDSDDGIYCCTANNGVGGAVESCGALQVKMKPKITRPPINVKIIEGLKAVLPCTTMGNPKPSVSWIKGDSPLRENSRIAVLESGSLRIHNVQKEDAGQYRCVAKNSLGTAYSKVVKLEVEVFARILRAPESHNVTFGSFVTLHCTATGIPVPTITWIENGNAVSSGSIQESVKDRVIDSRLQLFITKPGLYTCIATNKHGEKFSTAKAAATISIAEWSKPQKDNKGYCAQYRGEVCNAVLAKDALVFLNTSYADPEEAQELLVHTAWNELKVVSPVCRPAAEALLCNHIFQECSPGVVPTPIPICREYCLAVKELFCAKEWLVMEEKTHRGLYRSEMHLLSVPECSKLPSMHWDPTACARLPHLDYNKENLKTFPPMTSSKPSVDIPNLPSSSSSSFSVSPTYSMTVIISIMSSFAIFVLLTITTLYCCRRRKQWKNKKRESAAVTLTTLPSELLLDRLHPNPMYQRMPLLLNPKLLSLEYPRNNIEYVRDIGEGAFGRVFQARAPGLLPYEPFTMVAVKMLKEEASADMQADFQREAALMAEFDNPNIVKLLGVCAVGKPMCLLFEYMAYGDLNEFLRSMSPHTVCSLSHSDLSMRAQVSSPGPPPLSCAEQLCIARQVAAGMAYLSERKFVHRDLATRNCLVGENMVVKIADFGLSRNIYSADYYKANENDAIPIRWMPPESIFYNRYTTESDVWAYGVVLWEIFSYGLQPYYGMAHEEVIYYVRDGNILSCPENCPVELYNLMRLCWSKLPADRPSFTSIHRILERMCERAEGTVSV"}, "[3]": {"target": "T3, NDR2(h) (Homo sapiens, UniProt Q9Y2H1)", "T3 construct": "purchased Eurofins (KinaseProfiler)", "T3 sequence (Q9Y2H1 whole entry)": "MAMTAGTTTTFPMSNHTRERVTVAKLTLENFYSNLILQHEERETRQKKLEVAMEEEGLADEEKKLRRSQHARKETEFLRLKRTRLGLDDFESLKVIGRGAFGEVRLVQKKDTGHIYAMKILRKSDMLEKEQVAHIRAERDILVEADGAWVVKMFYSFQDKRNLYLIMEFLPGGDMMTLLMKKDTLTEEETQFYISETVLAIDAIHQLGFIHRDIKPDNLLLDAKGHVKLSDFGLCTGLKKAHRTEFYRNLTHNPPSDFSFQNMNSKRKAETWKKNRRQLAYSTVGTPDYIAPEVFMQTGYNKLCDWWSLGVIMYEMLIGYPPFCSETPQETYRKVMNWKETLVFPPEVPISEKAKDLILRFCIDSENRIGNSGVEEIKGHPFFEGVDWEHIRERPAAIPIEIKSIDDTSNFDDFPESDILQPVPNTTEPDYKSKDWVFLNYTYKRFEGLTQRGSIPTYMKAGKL"}, "[4]": {"target": "T4, PRKG2(h) (Homo sapiens, UniProt Q13237)", "T4 construct": "purchased Eurofins (KinaseProfiler)", "T4 sequence (Q13237 1-762)": "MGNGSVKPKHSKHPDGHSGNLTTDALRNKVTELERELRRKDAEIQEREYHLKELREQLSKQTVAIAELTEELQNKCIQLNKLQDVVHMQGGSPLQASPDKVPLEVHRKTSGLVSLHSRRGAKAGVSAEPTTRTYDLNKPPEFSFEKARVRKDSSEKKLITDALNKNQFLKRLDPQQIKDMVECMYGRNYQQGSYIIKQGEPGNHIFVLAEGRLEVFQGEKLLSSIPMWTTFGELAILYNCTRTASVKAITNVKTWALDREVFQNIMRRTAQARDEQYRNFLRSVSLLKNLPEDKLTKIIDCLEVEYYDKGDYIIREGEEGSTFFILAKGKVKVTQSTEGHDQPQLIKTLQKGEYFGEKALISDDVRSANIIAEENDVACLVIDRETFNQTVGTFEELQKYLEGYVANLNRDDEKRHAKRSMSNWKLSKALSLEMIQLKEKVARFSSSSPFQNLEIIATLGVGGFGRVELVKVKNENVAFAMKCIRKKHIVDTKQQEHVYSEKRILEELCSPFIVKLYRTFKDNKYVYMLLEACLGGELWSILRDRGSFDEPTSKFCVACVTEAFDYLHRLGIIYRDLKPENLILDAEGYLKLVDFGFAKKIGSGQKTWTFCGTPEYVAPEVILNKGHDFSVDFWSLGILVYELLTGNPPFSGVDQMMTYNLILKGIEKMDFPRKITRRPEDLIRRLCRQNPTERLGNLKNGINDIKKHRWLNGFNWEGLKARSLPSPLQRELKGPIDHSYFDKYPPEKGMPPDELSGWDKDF"}},
  "data": [
    {"smiles": "COc1cc(OC)c(Cl)c(-c2ccc3c(NC(=O)c4ccc(N5CCNC(C)(C)C5)cc4)n[nH]c3n2)c1Cl", "note": "[3D185]", "values": [
      {"measurement": "inhibition at 0.01 µM", "setting": "[1]; 10 nM", "value": 10, "unit": "%"},
      {"measurement": "inhibition at 0.1 µM", "setting": "[1]; 100 nM", "value": 17, "unit": "%"},
      {"measurement": "inhibition at 1 µM", "setting": "[1]; 1000 nM", "value": 27, "unit": "%"},
      {"measurement": "inhibition at 0.01 µM", "setting": "[2]; 10 nM", "value": 2, "unit": "%"},
      {"measurement": "inhibition at 0.1 µM", "setting": "[2]; 100 nM", "value": 7, "unit": "%"},
      {"measurement": "inhibition at 1 µM", "setting": "[2]; 1000 nM", "value": 47, "unit": "%"},
      {"measurement": "inhibition at 0.01 µM", "setting": "[3]; 10 nM", "value": 2, "unit": "%"},
      {"measurement": "inhibition at 0.1 µM", "setting": "[3]; 100 nM", "value": -8, "unit": "%"},
      {"measurement": "inhibition at 1 µM", "setting": "[3]; 1000 nM", "value": 1, "unit": "%"},
      {"measurement": "inhibition at 0.01 µM", "setting": "[4]; 10 nM", "value": 1, "unit": "%"},
      {"measurement": "inhibition at 0.1 µM", "setting": "[4]; 100 nM", "value": 3, "unit": "%"},
      {"measurement": "inhibition at 1 µM", "setting": "[4]; 1000 nM", "value": 3, "unit": "%"}
    ]}
  ]
}
